As usually defined, the logP is the decadic logarithm of the partition coefficient of the neutral form, usually between octanol and water. High values mean higher lipophilicity, low ones lower lipophilicity.

Consider one compound from patent US11124479B2, “Oligopyrroles as antagonists of islet amyloid polypeptide oligomerization” (New York University, priority 2017, dated 2021).

Each structure is given as a SMILES string.

In series [1] the target is T1, islet amyloid polypeptide (IAPP) (Homo sapiens, UniProt P10997).
T1 construct: IAPP is a 37 residue neuropancreatic hormone peptide; purchased Anaspec (Fremont, Calif.)
T1 sequence (P10997 34-70 limits assumed): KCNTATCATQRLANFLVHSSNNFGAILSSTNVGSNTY
Kind of series: Seed-catalyzed ThT kinetic assay of IAPP aggregation. To be noted: 15 μM IAPP; for relative t50 of seed catalyzed fibrillation: seed 5% v/v, lipid membrane DOPG:DOPC 3:7 750 μM; for factor of retardation of seed catalyzed aggregation kinetics: seed 10% v/v. It is filed as biochemical. On the procedure: Seeds of IAPP were prepared by incubating 100 μM of IAPP in phosphate buffer at room temperature and aged for 24 hours. The formation of fibers was confirmed by TEM and ThT stain before storage at −20° C. until use. For the seed catalyzed aggregation kinetics of IAPP, 10% (based on the monomeric IAPP, v/v) seeds were added with ThT in phosphate buffer to the 96-well plate. The aggregation was initiated by the addition of fresh IAPP followed by gentle mixing. Kinetic assays in the presence of the compounds of the invention were conducted under the same conditions except that the compounds were added from a stock solution (1 mM or 10 mM in DMSO) to keep the final concentration of DMSO less than 1.0% (v/v).
The effect of ADH-101 on preformed IAPP oligomers has been investigated. ADH-101 was added during the lag phase of IAPP amyloid kinetics at 1 h and 3 h at an equimolar ratio (IAPP:ADH-101, 1:1, 10 μM IAPP). […] Additionally, ADH-101 has no effect on IAPP amyloid fibers. No change in ThT fluorescence intensity was observed when ADH-101 added to the fibers (FIG. 4, black arrow). […] The kinetics of IAPP fibrillation is dominated by the secondary nucleation which is reflected in the disappearance of the lag phase (FIG. 13). The t50 for the seed catalyzed (5%, v/v) aggregation kinetics of 15 μM IAPP (lipid membrane, DOPG:DOPC, 3:7, 750 μM) is 0.55±0.13 h which is […] faster than the de novo conditions (t50=1.55±0.20 h, FIGS. 13A and 13B). ADH-101 delays the seed catalyzed fibrillation by a relative t50 that is 1.8 fold and 2.6 fold at stoichiometric ratios of 1:1 and 2:1 (ADH-101:IAPP), respectively (FIGS. 13A and 13B). The t50 for the seed catalyzed (10%, v/v) aggregation of 15 μM IAPP is 0.86±0.19 h, which is ˜10 fold faster than the de novo conditions (t50=8.7±0.8 h, FIGS. 13C and 13D). ADH-101 retards the seed catalyzed aggregation kinetics of IAPP by factors of 1.4, 5.4, and 7.1 at stoichiometric ratios of 1:0.1, 1:0.5, and 1:1 (IAPP:ADH-101), respectively (FIGS. 13C and 13D). It is postulated that ADH-101 modulates IAPP conformation and attenuates its ability for oligomerization and fibrillation.

The nature of the next series: Partition coefficient. The series is classed as physicochemical.
Series [2] has as its target T1, islet amyloid polypeptide (IAPP). As to the kind of experiment: Circular dichroism (CD) spectroscopy of IAPP conformation. To be noted: for IAPP conformation by CD: 15 μM IAPP, equimolar ratio. As for the experimental part:
A freshly prepared stock solution of IAPP (500 μM in water) was diluted to 15 μM in phosphate buffer for CD measurements. The spectra of IAPP were recorded at 0.5 nm intervals from 190 to 260 nm with an averaging time of 10 sec. and an average of three repeats on an Aviv Stopped Flow CD Spectropolarimeter (Model 202SF). Spectra were recorded using the identical method as described above. ADH-101 was added to the solution of IAPP at an equimolar ratio. […]
(Circular dichroism is the unequal absorption of left and right circularly polarised light.)

Series [3] has the same target. Kind of series: Transmission electron microscopy (TEM) of IAPP fibers. The settings on record: 10 μM IAPP, equimolar ratio. As for the experimental part:
[…] Aliquots of these samples were then applied to glow-discharged carbon-coated 300-mesh copper grids for 2 min and dried. Grids were negatively stained with uranyl acetate (2%, w/v) and dried. Micrographs of grids were examined on a Phillips CM12 Cryoelectron Microscope equipped with Gatan 4 k×2.7 k CCD camera at 120-kV accelerating voltage.

As for `CCOC(=O)c1cc(NC(=O)c2cc(NC(=O)c3cc([N+](=O)[O-])cn3CC(C)C)cn2CC(C)C)cn1CCC(=O)O` [ADH-101], the “relative t50 of seed catalyzed fibrillation” value turned out to be 1.8 fold in series [1] (ratio 1:1 (ADH-101:IAPP)) and 2.6 fold in series [1] (ratio 2:1 (ADH-101:IAPP)). For the same compound, the entries for the “factor of retardation of seed catalyzed aggregation kinetics” value in series [1] (ratio 1:0.1 (IAPP:ADH-101)), in series [1] (ratio 1:0.5 (IAPP:ADH-101)) and in series [1] (ratio 1:1 (IAPP:ADH-101)) were 1.4, 5.4 and 7.1, respectively. The compound further returned a logP in the series “Partition coefficient” of 2.2. Moreover, the “IAPP conformation by CD” value in series [2] (phosphate buffer, after 8 hours) is on record as “no β-sheet conformation was observed”; in series [2] (lipid membrane (600 μM DOPG:DOPC 3:7), after 1 hour), “stays in an α-helical state”. Further, in series [2] (FIG. 3B), the “conformation induced in IAPP” value is “induces an α-helical conformation”. In addition, the “induced CD signal around 340 nm” value in series [2] (incubated with IAPP at equimolar ratio) was “positive induced CD signal”. Besides, the “fiber formation by TEM” value in series [3] (12 hours) is reported as “no formation of fibers”; in series [3] (24 h), “formation of amorphous fibers”.
